Here are results for one compound from US20230060174A1, “PHARMACEUTICAL COMPOSITION OF TRICYCLIC PDE3/PDE4 DUAL INHIBITOR COMPOUND” (CHIA TAI TIANQING PHARMACEUTICAL GROUP CO., LTD., priority 2020, published 2023).

The nature of series [1]: Pharmacokinetic study in beagle dogs. The series is classed as in vivo. On the procedure:
Experimental Example 5: Pharmacokinetic study in beagle dogs In this study, male beagle dogs were selected as test animals, and LC-MS/MS was used for quantitatively measuring the drug concentration in plasma of beagle dogs at different time points after intravenous injection or intragastric administration of the compound of formula (I) so as to evaluate the pharmacokinetics of the compound of formula (I) in beagle dogs.
The clear solution of the compound of formula (I) was injected into two beagle dogs of 10-12 kg via the cephalic vein or saphenous vein, and the clear solution of the compound of formula (I) was administered intragastrically to two beagle dogs of 10-12 kg (overnight fasted). The animals were all subjected to approximately […] blood collection each time from peripheral veins at 0.0333, 0.0833, 0.25, 0.5, 1, 2, 4, 6, 8 and 24 h post-dose, and the blood was transferred into commercial centrifuge tubes containing 0.85-1.15 mg of K2 EDTA.2H20 anticoagulant, and plasma was separated by centrifugation at 3000 g for 10 min at 4° C. The plasma concentration was measured by LC-MS/MS, and the relevant pharmacokinetic parameters were calculated using WinNonlinTM Version 6.3 (Pharsight, Mountain View, Calif.), a pharmacokinetic software, with a non-compartmental model linear-log trapezoidal method.

The target in the next series is T1, recombinant human PDE3A (Homo sapiens, UniProt Q14432).
T1 construct: amino acid 669-end; GST (N); host or cells: Sf9 insect cells (baculovirus)
Nature of the series: In vitro inhibitory activity against PDE 3A enzyme (fluorescence polarization). The series is classed as biochemical. The conditions noted are these: 1 μM cAMP substrate. The method, then:
Experimental Example 3: In vitro detection of the inhibitory activity of the compound against PDE 3A enzyme
Objective: to determine the AMP/GMP expression based on fluorescence polarization, i.e., to trace binding of AMP/GMP to antibody so as to indicate enzyme activity.
Buffer solution: 10 mM Tris—HCl (pH 7.5), 5 mM MgCl2, 0.01% Brij 35, 1 mM dithiothreitol (DTT), and 1% DMSO.
Enzyme: recombinant human PDE3A (Gene accession number: NM 000921; amino acid 669-end) was expressed by baculovirus in Sf9 insect cells using an N-terminal GST tag, with the molecular weight being 84 kDa.
Enzyme substrate: 1 μM cAMP Detection: TranscreenerOAMP2/GMP2 antibody and AMP2/GMP2 AlexaFluor633 tracer.
Procedures: • 1. The recombinant human PDE3A enzyme and enzyme substrate (μM cAMP) were each dissolved in newly prepared experimental buffer solution; • 2. […] The measurement range of fluorescence polarization was […]. • Data analysis: the fluorescence polarization signal was converted to nM based on AMP/GMP standard curve and the percentage enzyme activity relative to DMSO control calculated by Excel. […] The measurement range of fluorescence polarization was Ex/Em=620/688. • […]
(Polarisation of emitted light reports the rotation of a fluorescent probe.)

Setting [2] is: intragastric administration 3 mg/kg.

T1 sequence (Q14432 669-1141 limits assumed): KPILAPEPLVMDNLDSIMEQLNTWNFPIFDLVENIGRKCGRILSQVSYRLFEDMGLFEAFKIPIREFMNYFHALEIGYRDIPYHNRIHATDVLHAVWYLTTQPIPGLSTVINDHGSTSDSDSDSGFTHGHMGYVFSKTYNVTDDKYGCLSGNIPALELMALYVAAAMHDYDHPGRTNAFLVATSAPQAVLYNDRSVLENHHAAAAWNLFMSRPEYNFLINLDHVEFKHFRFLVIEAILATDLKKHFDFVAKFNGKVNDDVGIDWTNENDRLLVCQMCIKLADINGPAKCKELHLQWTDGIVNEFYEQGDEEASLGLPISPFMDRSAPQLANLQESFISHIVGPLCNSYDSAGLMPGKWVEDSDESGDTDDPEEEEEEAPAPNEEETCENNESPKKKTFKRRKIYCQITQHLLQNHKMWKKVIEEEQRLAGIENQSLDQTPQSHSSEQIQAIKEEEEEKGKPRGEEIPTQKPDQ

As a reminder, the IC50 is the concentration that inhibits the measured activity by half. Consider `CCOc1cc2c(cc1OC)-c1c/c(=N\c3c(C)cc(C)cc3C)n(CCNC(=O)c3c(O)nnn3C)c(=O)n1CC2` [Compound of formula (I)], for which, in series [1] (setting [2]), the “Area under plasma concentration-time curve (0-inf)” value came out at 0.123 µM·h, the Peak concentration is recorded as 59.4 nM and the Time to peak stood at 0.6 h. The “Area under plasma concentration-time curve (0-inf)” value in series [1] (intravenous injection 0.5 mg/kg) amounted to 0.21 µM·h. Besides, on recombinant human PDE3A, the IC50 was 0.03 nM.
